Where a name gives a salt, the structure may show the parent alone. Read-outs that look alike come from different tables or passages of the source. One block for each compound: values may come before it.
Tests used:
[1] = tested on: Leptospira canicola Kipod 146; assay: Anti leptospiral activity (minimal inhibition concentration); format: cell-based; conditions: for MIC: Leptospira interrogans, KIPOD146, 240 h; for anti leptospiral activity: summary in words
Procedure: The tests were carried out under the following conditions:
Leptospira: Leptospira canicola Kipod 146
Inoculum: 1-10^5 cells/ml
Incubation time: 10 days, 28° C.
Evaluation: Direct count in dark field microscopy after 4,7 and 10 days.
2 Minimal+0.5% albumin (Pentex)
3 Korthof rich medium with 8% serum.
4 Korthof rich medium with 2% serum.

L. tropica amastigotes = assay: Anti leishmania test, amastigotes in peritoneal exudate cells in vitro; format: cell-based; conditions: 37° C.
Procedure: (§1) a. amastigotes in peritoneal exudate cells in Mc Coy's medium in vitro at 37° C.
+++=clearance of all parasites in 24 hours
++=clearance of all parasites in 48 hours
+=clearance of all parasites in 72 hours
±=Partial clearance of parasites in 72 hours or more
-=No activity against parasites.

Leishmania = assay: Anti leishmania tests, summary; format: cell-based, L. tropica; conditions: summary in words
Procedure: as §1
(§2) b. promastigotes in Mc Coy's medium in vitro at 27° C.

L. tropica promastigotes = assay: Anti leishmania test, promastigotes in vitro; format: cell-based; conditions: 27° C.
Procedure: as §2
+++=No viable parasites after 24 hours
++=No viable parasites after 48 hours
+=No viable parasites after 72 hours
±=No viable parasites after 96 hours p2 -=viable parasites after 120 hours.

Trypanosoma = assay: Anti trypanosoma test in vitro; format: cell-based; conditions: for Trypanosoma in vitro activity score: 37° C., scoring as in b (promastigotes); for activity against Trypanosoma: summary in words
Procedure: Trypanosoma in RPM1 medium in vitro at 37° C. Scoring as in b.

[2] = Toxic limit in the HSV replication test; conditions: monkey, bsc-1 cells
HSV-1 (Herpes Simplex) = assay: Inhibition test on HSV replication; format: cell-based
Source text: BSC-1 (Green monkey kidney)
**% Inhibition of control infected for some time with same virus PFV with […]

albino mice [3] = assay: Stereotyped behaviour in mice; format: in vivo, Male ICR albino mice; design: stereotyped behaviour score / Total Score / Mean Score: scale not given here; conditions: 50 mg/kg i.p.
Procedure: Male ICR albino mice weighing 25-30 g were put in cages with a metal grid floor, 4 in each cage. Drugs were injected intraperitoneally and stereotyped behaviour (sniffing, biting, repetitive head movement) was evaluated every 30 min.

albino rats = assay: Antiparkinson activity (catalepsy produced by haloperidol); format: in vivo, Male Charles River albino rats; conditions: 80 mg/kg i.p.
Procedure: Male Charles River albino rats, weighing 200-250 g, were used. Catalepsy was produced by haloperidol, 5 mg/kg i.p. The animals were placed with their front paws on a horizontal bar, about 10 cm above the ground, and animals were considered cataleptic if not changing posture for at least 30 sec. Cataleptic animals were injected i.p. with one of the drugs at a dose of 40-80 mg/kg. Catalepsy was estimated again at the intervals indicated.

albino mice [4] = assay: Stereotyped behaviour in mice; format: in vivo, Male ICR albino mice; design: scale not given here; conditions: 50 mg/kg i.p.
[5] = minimal + Pentex (0.5% albumin)

MIC ([1]; Korthof + 8% serum): 12.5 µg/mL
MIC [1, 5]: 12.5 µg/mL
MIC ([1]; minimal medium): 12.5 µg/mL
Structure (SMILES): CN(C)NC1C2CC3CC(C2)CC1C3 (centres unmarked) [Example 1, 1-(2'-Adamantyl)-2,2-dimethylhydrazine hydrochloride]
anti leptospiral activity [1]: active

Structure (SMILES): CNNC1C2CC3CC(C2)CC1C3 (centres unmarked) [Example 25, 1-(2'-Adamantyl)-2-methylhydrazine hydrochloride]
Leishmania amastigote activity score (L. tropica amastigotes; 100 μg): ++ (clearance of all parasites in 48 hours)
activity against Leishmania (Leishmania): active
Leishmania promastigote activity score (L. tropica promastigotes; 100 μg): +++ (No viable parasites after 24 hours)

MIC ([1]; Korthof + 8% serum): 50 µg/mL
MIC ([1]; minimal medium): 12.5 µg/mL
Structure (SMILES): FC(F)(F)c1cccc(NNC2C3CC4CC(C3)CC2C4)c1 (centres unmarked) [Example 6, 1-(2'-Adamantyl)-2-(m-trifluoromethylphenyl)hydrazine hydrochloride]
anti leptospiral activity [1]: active

MIC ([1]; Korthof + 8% serum): 100 µg/mL
MIC ([1]; minimal medium): 6.25 µg/mL
Structure (SMILES): c1ccc(NNC2C3CC4CC(C3)CC2C4)cc1 (centres unmarked) [Example 3, 1-(2'-Adamantyl)-2-phenylhydrazine hydrochloride]
anti leptospiral activity [1]: active
Trypanosoma in vitro activity score (Trypanosoma; 10 μg): + (No viable parasites after 72 hours)
Trypanosoma in vitro activity score (Trypanosoma; 100 μg): +++ (No viable parasites after 24 hours)
activity against Trypanosoma (Trypanosoma): active

Structure (SMILES): N=C(N)c1ccc(OCCCCCOc2ccc(C(=N)N)cc2)cc1 [Pentamidine, reference compound]
Trypanosoma in vitro activity score (Trypanosoma; 100 μg): ++ (No viable parasites after 48 hours)
Leishmania promastigote activity score (L. tropica promastigotes; 10 μg): +++ (No viable parasites after 24 hours)
Leishmania promastigote activity score (L. tropica promastigotes; 100 μg): +++ (No viable parasites after 24 hours)

Structure (SMILES): CNN(C)C1C2CC3CC(C2)CC1C3 (centres unmarked) [Example 49, 1-(2'-Adamantyl)-1,2-dimethylhydrazine hydrochloride]
MNTC [2]: 100 µg/mL
Trypanosoma in vitro activity score (Trypanosoma; 100 μg): ++ (No viable parasites after 48 hours)
activity against Trypanosoma (Trypanosoma): active
inhibition at 50 µg/mL (HSV-1 (Herpes Simplex); Human alphaherpesvirus 1, 50 μg/ml, BSC-1 cells, 10 PFU/cell, read-out: % Inhibition): 60%
inhibition at 100 µg/mL (HSV-1 (Herpes Simplex); Human alphaherpesvirus 1, 100 μg/ml, BSC-1 cells, 10 PFU/cell): 92%
inhibition at 200 µg/mL (HSV-1 (Herpes Simplex); Human alphaherpesvirus 1, 200 μg/ml, BSC-1 cells, 10 PFU/cell): 99.9%

Structure (SMILES): CC(NNC1C2CC3CC(C2)CC1C3)C(=O)O (stereo not drawn) [Example 38, α-[2-(2'-Adamantyl)hydrazino]propionic acid hydrochloride]
Leishmania amastigote activity score (L. tropica amastigotes; 100 μg): ++ (clearance of all parasites in 48 hours)
activity against Leishmania (Leishmania): active
Leishmania promastigote activity score (L. tropica promastigotes; 10 μg): ± (No viable parasites after 96 hours)
Leishmania promastigote activity score (L. tropica promastigotes; 100 μg): ++ (No viable parasites after 48 hours)

MIC ([1]; Korthof + 2% serum): 12.5 µg/mL
MIC ([1]; Korthof + 8% serum): 12.5 to 25 µg/mL
MIC [1, 5]: 25 µg/mL
MIC ([1]; minimal medium): 25 µg/mL
Structure (SMILES): CN(CC(=O)O)NC1C2CC3CC(C2)CC1C3 (centres unmarked) [Example 37, [2-(2'-Adamantyl)-1-methylhydrazino]acetic acid hydrochloride]
anti leptospiral activity [1]: active

Structure (SMILES): NC12CC3CC(CC(C3)C1)C2 [Amant., Amantadine, reference compound]
MNTC [2]: 50 µg/mL
inhibition at 50 µg/mL (HSV-1 (Herpes Simplex); Human alphaherpesvirus 1, BSC-1): 93%

Structure (SMILES): c1ccc(NNC2C3CC4CC(C3)CC2C4)nc1 (centres unmarked) [Example 8, 1-(2'-Adamantyl)-2-(2"-pyridyl)hydrazine hydrochloride]
Trypanosoma in vitro activity score (Trypanosoma; 10 μg): + (No viable parasites after 72 hours)
Trypanosoma in vitro activity score (Trypanosoma; 100 μg): +++ (No viable parasites after 24 hours)
activity against Trypanosoma (Trypanosoma): active
Leishmania amastigote activity score (L. tropica amastigotes; 10 μg): + (clearance of all parasites in 72 hours)
Leishmania amastigote activity score (L. tropica amastigotes; 100 μg): +++ (clearance of all parasites in 24 hours)
activity against Leishmania (Leishmania): active

Structure (SMILES): CC(C)NNC1C2CC3CC(C2)CC1C3 (centres unmarked) [Example 51, 1-(2'-Adamantyl)-2-isopropylhydrazine hydrochloride]
Trypanosoma in vitro activity score (Trypanosoma; 100 μg): +++ (No viable parasites after 24 hours)
activity against Trypanosoma (Trypanosoma): active
Leishmania amastigote activity score (L. tropica amastigotes; 10 μg): ± (Partial clearance of parasites in 72 hours or more)
Leishmania amastigote activity score (L. tropica amastigotes; 100 μg): ++ (clearance of all parasites in 48 hours)
activity against Leishmania (Leishmania): active

Structure (SMILES): C1CCCN(NC2C3CC4CC(C3)CC2C4)CC1 (centres unmarked) [Example 11, 1-(2'-Adamantylamino)homopiperidine hydrochloride]
Trypanosoma in vitro activity score (Trypanosoma; 10 μg): + (No viable parasites after 72 hours)
Trypanosoma in vitro activity score (Trypanosoma; 100 μg): +++ (No viable parasites after 24 hours)
activity against Trypanosoma (Trypanosoma): active

Structure (SMILES): NC12CC3CC(CC(C3)C1)C2 [Symmetrel, reference compound]
stereotyped behaviour score (albino mice [3]; 0 min, mouse 1): 0
stereotyped behaviour score (albino mice [3]; 0 min, mouse 2): 0
stereotyped behaviour score (albino mice [3]; 0 min, mouse 3): 0
stereotyped behaviour score (albino mice [3]; 0 min, mouse 4): 0
stereotyped behaviour score (albino mice [3]; 30 min, mouse 1): 1
stereotyped behaviour score (albino mice [3]; 30 min, mouse 2): 1
stereotyped behaviour score (albino mice [3]; 30 min, mouse 3): 1
stereotyped behaviour score (albino mice [3]; 30 min, mouse 4): 1
stereotyped behaviour score (albino mice [3]; 45 min, mouse 3): 1
stereotyped behaviour score (albino mice [3]; 45 min, mouse 4): 1
stereotyped behaviour score (albino mice [3]; 60 min, mouse 1): 2
stereotyped behaviour score (albino mice [3]; 60 min, mouse 2): 2
stereotyped behaviour score (albino mice [3]; 60 min, mouse 3): 1
stereotyped behaviour score (albino mice [3]; 60 min, mouse 4): 1
stereotyped behaviour score (albino mice [3]; 90 min, mouse 1): 1
stereotyped behaviour score (albino mice [3]; 90 min, mouse 2): 1
stereotyped behaviour score (albino mice [3]; 90 min, mouse 3): 2
stereotyped behaviour score (albino mice [3]; 90 min, mouse 4): 1
stereotyped behaviour score (albino mice [3]; 120 min, mouse 1): 2
stereotyped behaviour score (albino mice [3]; 120 min, mouse 2): 2
stereotyped behaviour score (albino mice [3]; 120 min, mouse 3): 2
stereotyped behaviour score (albino mice [3]; 120 min, mouse 4): 2
stereotyped behaviour score (albino mice [3]; 135 min, mouse 1): 2
stereotyped behaviour score (albino mice [3]; 135 min, mouse 2): 2
stereotyped behaviour score (albino mice [3]; 150 min, mouse 1): 2
stereotyped behaviour score (albino mice [3]; 150 min, mouse 2): 2
stereotyped behaviour score (albino mice [3]; 150 min, mouse 3): 2
stereotyped behaviour score (albino mice [3]; 150 min, mouse 4): 2
stereotyped behaviour score (albino mice [3]; 180 min, mouse 1): 2
stereotyped behaviour score (albino mice [3]; 180 min, mouse 2): 2
stereotyped behaviour score (albino mice [3]; 180 min, mouse 3): 2
stereotyped behaviour score (albino mice [3]; 180 min, mouse 4): 2
stereotyped behaviour score (albino mice [3]; 210 min, mouse 1): 2
stereotyped behaviour score (albino mice [3]; 210 min, mouse 2): 2
stereotyped behaviour score (albino mice [3]; 210 min, mouse 3): 2
stereotyped behaviour score (albino mice [3]; 210 min, mouse 4): 1
stereotyped behaviour score (albino mice [3]; 240 min, mouse 1): 2
stereotyped behaviour score (albino mice [3]; 240 min, mouse 2): 2
stereotyped behaviour score (albino mice [3]; 240 min, mouse 3): 2
stereotyped behaviour score (albino mice [3]; 240 min, mouse 4): 0
Mean Score (albino mice [3]; mean of 4 mice): 16
Total Score (albino mice [3]; mouse 1): 17
Total Score (albino mice [3]; mouse 2): 17
Total Score (albino mice [3]; mouse 3): 17
Total Score (albino mice [3]; mouse 4): 13
anticataleptic effect (albino rats; rat 1): 0/4
anticataleptic effect (albino rats; rat 2): 2/4
anticataleptic effect (albino rats; rat 3): 3/4
anticataleptic effect (albino rats; rat 4): 3/4
anticataleptic effect (albino rats; rat 5): 3/4
stereotyped behaviour score (albino mice [4]; 45 min, mouse 1): 1
stereotyped behaviour score (albino mice [4]; 45 min, mouse 2): 1
stereotyped behaviour score (albino mice [4]; 135 min, mouse 3): 2
stereotyped behaviour score (albino mice [4]; 135 min, mouse 4): 2

From patent US4254128A, “2-Adamantyl hydrazines and biocidal compositions thereof” (Teva Pharmaceutical Industries Ltd., priority 1977, dated 1981)
